From US20210393520A1, “TREATMENT OF GRAM-NEGATIVE FOLLICULITIS OR AN INFLAMMATION THEREOF WITH BESIFLOXACIN” (VYOME THERAPEUTICS LIMITED, priority 2018, published 2021)
Values after ≈ are worked out from the molar mass of the structure shown. Each block holds one molecule with its values, some of them ahead of it.

Legend:
[1] = tested on: P. acnes V3-1; test: MIC against bacteria isolated from acne lesions, Table 2; assay type: cell-based, Propionibacterium acnes; conditions: Cutibacterium acnes, V31; P. acnes V3-1, isolated from acne lesions; read-out: Minimum Inhibitory Concentration
Protocol: (§1) MIC of besifloxacin and other antibiotics molecules were determined by micro broth dilution method as per the Clinical and Laboratory Standards Institute (CLSI) guideline. MIC assay is the determinant of the inherent anti-microbial potency of a particular molecule. For preparing inoculum, bacterial strains were cultured in Brain Heart Infusion Agar (BHIA) at 37° C. for 24 hours. […] For bacterial inoculum, bacterial culture turbidity was adjusted to 0.1 OD at 600 nm in UV-Visual spectrophotometer (approximately 1.5×10^8 cells/ml) and further diluted (100 times with sterile BHI broth). Diluted bacterial suspension (100 μl) was added to each well except sterility control wells (column 12 of 96 well plate). Column 11 of 96 well plate was used as growth control and vehicle control. The plates were incubated at 37° C. for 24 h. The MIC of the test compounds were determined by observing the lowest concentration of test compound that prevented the visual bacterial growth.
(§2) Different skin resident bacteria were isolated from acne lesions of moderate to severe acne patients.

[2] = tested on: Bacillus megaterium M1-2.; test: as above; assay type: cell-based; conditions: Priestia megaterium, M12., read-out: Minimum Inhibitory Concentration
Protocol: as §1, §2

[3] = tested on: Dermatobacter hominis S11-2; test: as above; assay type: cell-based; conditions: S112; Dermatobacter hominis S11-2, isolated from acne lesions; read-out: Minimum Inhibitory Concentration
Protocol: as §1, §2

[4] = tested on: Enterobacter aerogenes M2-1; test: as above; assay type: cell-based; conditions: Klebsiella aerogenes, M21; Enterobacter aerogenes M2-1, isolated from acne lesions; read-out: Minimum Inhibitory Concentration
Protocol: as §1, §2

[5] = tested on: K. pneumoniae S6-1; test: as above; assay type: cell-based; conditions: Klebsiella pneumoniae, S61; K. pneumoniae S6-1, isolated from acne lesions; read-out: Minimum Inhibitory Concentration
Protocol: as §1, §2

[6] = tested on: Kocuria sp. S18-1; test: as above; assay type: cell-based; conditions: SP.S181; Kocuria sp. S18-1, isolated from acne lesions; read-out: Minimum Inhibitory Concentration
Protocol: as §1, §2

[7] = tested on: Microbacterium sp. S20-2; test: as above; assay type: cell-based; conditions: Microbacterium sp. S20-2, isolated from acne lesions
Protocol: as §1, §2

[8] = tested on: P. avidum S3-1; test: as above; assay type: cell-based; conditions: Cutibacterium avidum, S31; P. avidum S3-1, isolated from acne lesions; read-out: Minimum Inhibitory Concentration
Protocol: as §1, §2

[9] = tested on: S. epidermidis S1-1; test: as above; assay type: cell-based; conditions: Staphylococcus epidermidis, S11; S. epidermidis S1-1, isolated from acne lesions; read-out: Minimum Inhibitory Concentration
Protocol: as §1, §2

[10] = tested on: Staphylococcus haemolyticus M1-1; test: as above; assay type: cell-based; conditions: M11; Staphylococcus haemolyticus M1-1, isolated from acne lesions; read-out: Minimum Inhibitory Concentration
Protocol: as §1, §2

[11] = tested on: Blastococcus sp. S21A-2; assay type: cell-based; conditions: Blastococcus sp. S21A-2, isolated from acne lesions
Protocol: as §1, §2

[12] = tested on: Acinetobacter sp. 488; test: MIC, micro broth dilution in Muller Hinton broth (CLSI), Table 1B; assay type: cell-based; conditions: read-out: Minimum Inhibitory Concentration
Protocol: (§3) Besifloxacin HCL was tested against ampicillin and cefotaxime (3rd generation cephalosporin) susceptible and resistant gram-negative bacterial strains involved in GNF (gram negative folliculitis) by broth dilution method as per the Clinical & Laboratory Standards Institutes (CLSI) guidelines. MIC assay was performed in 96 well plates by micro broth dilution method, in 96 well plates, all the wells were added with 100 μl of sterilized Muller Hinton broth No: 2 cation broth (HiMedia, India). The initial stock of test compounds (1 mg/ml) were prepared in dimethyl sulfoxide (DMSO) and further dilutions were made in culture broth to get the desirable concentration. Then 100 μl of broth containing test compounds were initially added to the first column's wells and then serial dilution was performed up to well of 10th column. Wells of 11th and 12th column served as a positive and negative control respectively. Finally, 100 μl of inoculum (0.5 McFarland equal bacterial suspension was 100 times diluted in culture broth) was added to all the wells. Plates were incubated at 37° C. for 18-24 hrs. After incubation, MIC of each test compound was determined by observing the lowest concentration of test compound that has no visual growth compared to growth control. Minimum inhibitory concentration of besifloxacin, ampicillin and cefotaxime against gram negative bacterial strains were shown in Table 1.

[13] = tested on: Enterobacter sp. 1; test: as above; assay type: cell-based; conditions: read-out: Minimum Inhibitory Concentration
Protocol: as §3

[14] = tested on: Enterobacter sp. 2; test: as above; assay type: cell-based; conditions: read-out: Minimum Inhibitory Concentration
Protocol: as §3

[15] = tested on: Enterobacter sp. 523; test: as above; assay type: cell-based; conditions: read-out: Minimum Inhibitory Concentration
Protocol: as §3

[16] = tested on: Enterobacter sp. 532; test: as above; assay type: cell-based; conditions: read-out: Minimum Inhibitory Concentration
Protocol: as §3

[17] = tested on: Escherichia coli 591; test: as above; assay type: cell-based; conditions: read-out: Minimum Inhibitory Concentration
Protocol: as §3

[18] = tested on: Escherichia coli 592; test: as above; assay type: cell-based; conditions: read-out: Minimum Inhibitory Concentration
Protocol: as §3

[19] = tested on: Klebsiella sp. 498; test: as above; assay type: cell-based; conditions: read-out: Minimum Inhibitory Concentration
Protocol: as §3

[20] = tested on: Klebsiella sp. 512; test: as above; assay type: cell-based; conditions: read-out: Minimum Inhibitory Concentration
Protocol: as §3

[21] = tested on: Pseudomonas sp. 537; test: as above; assay type: cell-based; conditions: read-out: Minimum Inhibitory Concentration
Protocol: as §3

[22] = tested on: Pseudomonas sp. 556; test: as above; assay type: cell-based; conditions: read-out: Minimum Inhibitory Concentration
Protocol: as §3

Compound: CC[C@H]1OC(=O)[C@H](C)[C@@H](O[C@H]2C[C@@](C)(OC)[C@@H](O)[C@H](C)O2)[C@H](C)[C@@H](O[C@@H]2O[C@H](C)C[C@H](N(C)C)[C@H]2O)[C@](C)(O)C[C@@H](C)C(=O)[C@H](C)[C@@H](O)[C@]1(C)O [Erythromycin]
MIC [1]: > 150 µg/mL
MIC [2]: 0.25 µg/mL (≈ 0.341 µM)
MIC [3]: > 4 µg/mL
MIC [4]: > 4 µg/mL
MIC [5]: > 4 µg/mL
MIC [6]: > 4 µg/mL
Minimum Inhibitory Concentration [7]: 0.25 µg/mL
MIC [8]: 0.06 µg/mL (≈ 0.0818 µM)
MIC [9]: > 4 µg/mL
MIC [10]: 0.25 µg/mL (≈ 0.341 µM)
Minimum Inhibitory Concentration [11]: <0.01 µg/mL

MIC [12]: > 128 µg/mL
MIC [13]: > 128 µg/mL
MIC [14]: 2 µg/mL (≈ 5.72 µM)
MIC [15]: > 128 µg/mL
MIC [16]: > 128 µg/mL
MIC [17]: 4 µg/mL (≈ 11.4 µM)
MIC [18]: > 128 µg/mL
MIC [19]: > 128 µg/mL
MIC [20]: 32 µg/mL (≈ 91.6 µM)
MIC [21]: > 128 µg/mL
MIC [22]: > 128 µg/mL
Compound: CC1(C)S[C@@H]2[C@H](NC(=O)[C@H](N)c3ccccc3)C(=O)N2[C@H]1C(=O)O [Ampicillin]
